Measured values published in patent US20220378790A1, “PHARMACEUTICAL PREPARATION COMPRISING AN AMIDE DERIVATIVE INHIBITING THE GROWTH OF CANCER CELL AND A PHARMACEUTICAL PRODUCT CONTAINING THE SAME” (Hanmi Pharm Co., Ltd., priority 2019, published 2022).

Test: Stability test at 60° C. severe condition, impurity IV
Assay type: physicochemical
Description: The stability of the tablets of Examples 6 to 9 and Comparative Example 9 above was evaluated. In addition, the stability was evaluated using HM781-36B itself as Comparative Example 11.
Specifically, each of the tablets of Examples 6 to 9 and Comparative Example 9 above was packaged with Formpack® Dessiflex Blister (where to get: amcor), and the HM781-36B of Comparative Example 11 was packaged in an HDPE bottle, and then these were stored for 1, 2, and 4 weeks at a temperature of 60° C., which is a severe condition. The stability evaluation was performed for the samples stored for the above period according to the analysis conditions of Experimental Example 6.

Amount of Impurity IV (1 week, 60° C.): 0.06%
Amount of Impurity IV (2 weeks, 60° C.): 0.07%
Stability (in words) (4 weeks under severe conditions, 60° C.): very stable results
Amount of Impurity IV (4 weeks, 60° C.): 0.07%
Amount of Impurity IV (Initial, tablets in Formpack Dessiflex Blister, HM781-36B in HDPE bottle): 0.06%
SMILES: C=CC(=O)N1CCC(Oc2cc3c(Nc4ccc(Cl)c(Cl)c4F)ncnc3cc2OC)CC1 [Comparative Example 11]
